For one data set, the system named is C. albicans (ATCC 14053). In kind it is cell-based, Candida albicans. Conditions: Mueller-Hinton Broth, 2 × 10^4 CFU/mL, 18 h at 37°C, visible turbidity, complete growth inhibition. The protocol: (§1) The bacterial strains E. coli (KACC 13821, ATCC 11775) and Staphylococcus aureus (KACC 10768, ATCC 25923), and the yeast strain Candida albicans (KCTC 7121, ATCC 14053) were purchased from the Korean Agricultural Culture Collection (KACC) and Korean Collection for Type Cultures (KCTC). Both bacteria and the yeast were cultivated overnight in tryptic soy broth (TSB; Difco, USA) at 200 rpm in a 37°C shaking incubator to the stationary phase. Bacteria were cultivated for 3 h in fresh TSB medium under the same condition to the log phase. The strains were stored with 15% glycerol at −70°C until use.
(§2) In addition, antimicrobial activities of the peptides were also tested by broth microdilution assays against E. coli, S. aureus, and C. albicans. Briefly, microbes were grown overnight in Mueller-Hinton Broth (MHB) to the onset of the stationary phase with shaking at 200 rpm. The cultures were diluted in fresh MHB to a final concentration of 2 × 10^4 CFU/mL. A stock solution of each peptide was prepared to a concentration of 640 μg/mL in 0.01% acetic acid, and was then serially diluted two-fold to reach a concentration of 10 μg/mL. After 90-μL aliquots of the microbial suspension were dispensed into each well of a 96-well polypropylene microtiter plate, 10 μL of the peptide solution was added. The antimicrobial activities of the peptides were assessed by measuring the visible turbidity in each well of the plate after 18 h of incubation at 37°C. Minimum inhibitory concentrations (MICs) are expressed as a specific value that caused complete growth inhibition.

Another data set deals with human keratinocytes. In words: Cell viability assay (MTS). In kind it is cell-based. Particulars: 24 h treatment, 25, 50, 100 and 200 μg/mL, OD 490 nm. The protocol:
(§3) The human keratinocytes were maintained in Dulbecco’s Modified Eagle Medium supplemented with 10% fetal bovine serum (FBS; Hyclone, USA), penicillin G (100 U/mL), and streptomycin (100 μg/mL) (Invitrogen, USA). Human umbilical vein endothelial cells (HUVECs) were grown on 0.1% gelatin-coated cell culture dishes in M199 medium (Welgene, Korea) supplemented with 20% (v/v) FBS, 3 ng/mL basic fibroblast growth factor (R&D Systems, USA), 5 U/mL of heparin (Sigma, USA), and a penicillin-streptomycin-amphotericin B mixture (100 U/mL potassium penicillin, […] streptomycin sulfate, and 250 ng/mL amphotericin B; Lonza, Belgium) as a complete medium. Cells were cultured at 37°C in a humidified incubator with 5% CO2. Cells were plated in 96-well tissue culture plates (2 × 10^4 cells per well). After 1 day, they were treated with various concentrations (25, 50, 100, and 200 μg/mL) of peptides. Melittin (Sigma, USA) was used as the positive control. After incubation for 24 h, the viability of the cells was assessed by the Cell Titer 96 AQueous One Solution Cell Proliferation Assay according to the manufacturer’s protocol (Promega, USA). The optical density at 490 nm was measured with a microplate reader (Beckman DTX 8800 Multi Detector, USA).

Data set [1] deals with Human umbilical vein endothelial cells (HUVECs). The data set is described as follows: Cell viability assay (MTS). The class given is cell-based. Particulars: 24 h treatment, 25, 50, 100 and 200 μg/mL, OD 490 nm. As to the method:
as §3

For the next data set, the system named is S. aureus. In words: Radial diffusion assay. In kind it is cell-based, Staphylococcus aureus. Particulars: diameter of growth inhibition zone after 12 h; compared with melittin; repeated three times. As to the method:
as §1
(§4) The radial diffusion assay was performed to test the antimicrobial activities of peptides, as described previously with slight modifications. In brief, bacteria and yeast strains were grown to the mid-logarithmic phase in TSB at 37°C and then washed twice with 10 mM Tris-HCl (containing 5 mM glucose, pH 7.4). A total of 4 × 10^6 CFU was added to 10 mL of an underlay agarose gel [0.03% (w/v) TSB, 1% (w/v) agarose (Sigma, USA), and 0.02% (v/v) Tween 20 (Sigma, USA) in 10 mM Tris-HCl]. The underlay gel was poured into a 100-mm INTEGRID^TM Petri dish. After agarose solidification, 3-mm-diameter wells were punched and 5 μL of each peptide solution was added to each well. Buffer alone was used as a negative control. Plates were incubated at 37°C for 3 h to allow for diffusion of the peptides. The underlay gel was then covered with 10 mL of nutrient-rich agar overlay (6% TSB and 1% agarose in 10 mM Tris-HCl). […] This experiment was repeated at least 3 times and the same results were obtained.

In the next data set the test system is E. coli (ATCC 11775). The data set is described as follows: Broth microdilution assay (MIC). Conditions: Mueller-Hinton Broth, 2 × 10^4 CFU/mL, 18 h at 37°C, visible turbidity, complete growth inhibition. The class given is cell-based, Escherichia coli. The protocol: as §1, §2
In general terms: In broth dilution the organism is exposed to a series of concentrations in liquid medium.

Data set [2] concerns Gram-negative bacteria, Gram-positive bacteria, and yeast. The data set is described as follows: Radial diffusion assay, statement over all three microbes. In kind it is cell-based. Conditions: increased in a dose-dependent manner, cleared zone after 12 h at 37°C. As to the method: as §1, §4
The subject of another data set is E. coli. In words: Radial diffusion assay. The class given is cell-based, Escherichia coli. Particulars: diameter of growth inhibition zone after 12 h; compared with melittin; repeated three times. The protocol:
as §1, §4

In another data set the test system is S. aureus (ATCC 25923). The data set is described as follows: Broth microdilution assay (MIC). Conditions: Mueller-Hinton Broth, 2 × 10^4 CFU/mL, 18 h at 37°C, visible turbidity, complete growth inhibition. In kind it is cell-based, Staphylococcus aureus. The protocol: as §1, §2
A further data set has as its system C. albicans. In words: Radial diffusion assay. The class given is cell-based, Candida albicans. Particulars: diameter of growth inhibition zone after 12 h; repeated three times. The protocol: as §1, §4
Another data set deals with rat erythrocytes. The data set is described as follows: Hemolytic assay. The class given is cell-based. Particulars: 100 μg/mL, compared to melittin, 30 min at 37°C, A540. The protocol: This experiment was approved by the Institutional Animal Care and Use Committee (IACUC) of the National Academy of Agricultural Sciences (approval number: NAAS-1114). The hemolytic activity of the peptides was determined by monitoring the release of hemoglobin from rat erythrocytes at 540 nm. For the hemolytic assay, 20 μL of each peptide solution at a predetermined concentration was added to 180 μL of a 2.5% (v/v) suspension of rat erythrocytes in phosphate-buffered saline (PBS). Melittin (Sigma, USA), a hemolytic and α-helical peptide isolated from bee venom, was used as the positive control. This mixture was incubated for 30 min at 37°C, and 600 μL of PBS was then added to each tube. After 3 min of centrifugation at 10,000 ×g, the supernatant was […], and the absorbance was measured at 540 nm. Evaluations were made from the results of at least three independent experiments, each carried out in triplicate.

Results on 2 molecules are retold here after PMC4864078, “De Novo Transcriptome Analysis and Detection of Antimicrobial Peptides of the American Cockroach Periplaneta americana (Linnaeus)” (PLoS ONE, 2016).

Entries after “also recorded” stand apart in the source; their conditions may differ.

Regarding `CC[C@H](C)[C@H](NC(=O)CN)C(=O)NCC(=O)N[C@@H](C)C(=O)N[C@H](C(=O)N[C@@H](CC(C)C)C(=O)N[C@@H](CCCCN)C(=O)N[C@H](C(=O)N[C@@H](CC(C)C)C(=O)N[C@H](C(=O)N[C@H](C(=O)NCC(=O)N[C@@H](CC(C)C)C(=O)N1CCC[C@H]1C(=O)N[C@@H](C)C(=O)N[C@@H](CC(C)C)C(=O)N[C@H](C(=O)N[C@@H](CO)C(=O)N[C@@H](Cc1c[nH]c2ccccc12)C(=O)N[C@H](C(=O)N[C@@H](CCCCN)C(=O)N[C@@H](CCCNC(=N)N)C(=O)N[C@@H](CCCCN)C(=O)N[C@@H](CCCNC(=N)N)C(=O)N[C@@H](CCC(N)=O)C(=O)N[C@@H](CCC(N)=O)C(N)=O)[C@@H](C)CC)[C@@H](C)CC)[C@@H](C)O)[C@@H](C)O)C(C)C)C(C)C` [Melittin], the “Minimum Inhibitory Concentration (MIC)” value in the data set on C. albicans (ATCC 14053) amounted to 8 µg/mL. In addition, the “Cell viability of human keratinocytes” value in the data set with human keratinocytes is on record as “more susceptible”. Further, in [1], the “Cell viability of HUVECs” value is listed as “more susceptible”.
“KRMKLNAKKLSFCDHLNSYLNLSPTLFIHNSSKQWSHWLWHNGIRI [ISGCock_Contig15_1337–2, synthetic peptide, second AMPA stretch of a predicted novel AMP from a P. americana transcript]”: the “Antimicrobial activity in S. aureus (radial diffusion assay)” value with S. aureus is given as “greater than that of melittin”. For the same molecule, the “Minimum Inhibitory Concentration (MIC)” value in the data set with E. coli (ATCC 11775) is more than 64 µg/mL; in the data set with C. albicans (ATCC 14053), 64 µg/mL; in the data set with S. aureus (ATCC 25923) it was more than 64 µg/mL. Further, the “Antimicrobial activity in radial diffusion assay” value in data set [2] was “antimicrobial activity”. Besides, the “Antimicrobial activity in E. coli (radial diffusion assay)” value in the data set with E. coli was “stronger antimicrobial activity than melittin; also recorded: highest antimicrobial activity of the tested peptides”. For the same molecule, the “Antimicrobial activity against C. albicans (radial diffusion assay)” value with C. albicans is on record as “strong antimicrobial activity”. In addition, in the data set on rat erythrocytes, the Hemolytic activity entry is on record as “relatively low compared to that of melittin”.
